Measured values as given in patent US20050100902A1, “5-cyano-1h-indole derivatives as antagonist of the inerleukine-8 receptors” (priority 2001, published 2005).

melting point: 158 to 160 °C
SMILES: N#Cc1ccc2[nH]c(-c3ccc(Cl)c(Cl)c3)c(CCCC(=O)O)c2c1 [Example 1, 2-(3,4-dichlorophenyl)-5-cyano-1H-indole-3-butanoic Acid]
